Experimental data reported in US20120077802A1 (SUNOVION PHARMACEUTICALS INC., priority 2009, published 2012).

biological target: T1, human histamine H3 receptor (Homo sapiens, UniProt Q9Y5N1); assay: H3 GTPγS assay (SPA method), histamine H3 in vitro assay; assay type: biochemical; conditions: GTPγ[35S] SPA, membranes of cells expressing human H3 receptor; in one embodiment HCl salts tested; read-out: Potency (functional potency as indicated by IC50)
T1 construct: host or cells: cells expressing the human H3 receptor
T1 sequence (Q9Y5N1 whole entry): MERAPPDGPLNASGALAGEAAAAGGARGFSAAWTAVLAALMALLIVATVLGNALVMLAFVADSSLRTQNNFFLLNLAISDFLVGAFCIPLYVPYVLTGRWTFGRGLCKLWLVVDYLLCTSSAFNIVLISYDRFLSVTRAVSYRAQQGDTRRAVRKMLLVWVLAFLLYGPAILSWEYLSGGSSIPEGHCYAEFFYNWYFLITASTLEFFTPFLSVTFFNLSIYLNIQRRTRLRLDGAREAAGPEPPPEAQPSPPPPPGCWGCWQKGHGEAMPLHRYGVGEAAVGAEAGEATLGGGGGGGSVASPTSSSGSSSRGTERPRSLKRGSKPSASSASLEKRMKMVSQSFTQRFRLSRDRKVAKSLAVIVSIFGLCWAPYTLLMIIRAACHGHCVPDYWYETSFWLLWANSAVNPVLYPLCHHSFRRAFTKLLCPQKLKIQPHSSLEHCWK
Procedure: H3 GTPγS assay (SPA method) was performed at EuroScreen (Belgium, ES-392-C) using conventional methods. Briefly, cells expressing the human histamine H3 receptor were homogenized in 15 mM Tris-HCl pH 7.5, 2 mM MgCl2, 0.3 mM EDTA, and 1 mM EGTA. Membranes were washed twice in the above tris buffer, collected by centrifugation (40,000×g, 25 min), and re-suspended in 75 mM Tris-HCl pH 7.5, 12.5 mM MgCl2, 0.3 mM EDTA, 1 mM EGTA, and 250 mM sucrose. Membranes were frozen in liquid nitrogen until use. On the day of the assay, membranes were thawed and diluted in assay buffer (20 mM HEPES pH 7.4, 100 mM NaCl, 10 μg/ml saponin, 1 mM MgCl2) to give 500 μg/ml and mixed (v/v) with GDP in assay buffer for a final GDP concentration of 10 μM and incubated on ice for at least 15 min. PVT-WGA beads (Amersham, RPNQ001) were diluted in assay buffer at 50 mg/mL and mixed with GTPγ[^35S] (Amersham, SJ1308) diluted in assay buffer to give ˜25,000 dpm/10 μL, and mixed vol/vol just before the start of the reaction. The reaction was started by adding 50 μL of test compound, 20 μL of the membranes:GDP mix, 10 μL of buffer, and 20 μL of the GTPγ[^35S]:beads mix in a 96 well plate Optiplate™ (PerkinElmer, 6005299) covered with topseal (TopCount™, PerkinElmer), mixed with an orbital shaker for 2 min, incubated for 1 hour at room temperature, centrifuged for 10 min at 2000 rpm, incubated for 1 h at room temperature, and counted for 1 min in a TopCount™ reader (PerkinElmer). Dose response curves and IC50 values (concentration to inhibit the reaction by 50%) were calculated by nonlinear regression using XLfit software (IDBS).
For antagonists testing, 10 μL of a reference agonist (R-γ-Me-Histamine) instead of 10 μL buffer was added at a concentration corresponding to the EC80 (30 nM). Control ligands were R-γ-Me-Histamine (Tocris, 0569), Imetit (Sigma, I-135), Thioperamide (Tocris, 0644), and Clobenpropit (Tocris, 0754) diluted in assay buffer.
The compounds provided herein were tested in the histamine H3 in vitro assay. In one embodiment, the respective HCl salts of the compounds provided herein were prepared using standard chemical procedures and tested in the histamine H3 in vitro assay.

Compound | IC50 [nM]
4-(1′,2′,3′,5′,6′,7′,9′,9a′-Octahydro-3H-spiro[benzofuran-2,8′-pyrrolo[1,2-a]azepin]-5-yl)benzonitrile and 4-(1′,2′,3′,5′,6′,8′,9′,9a′-octahydro-3H-spiro[benzofuran-2,7′-pyrrolo[1,2-a]azepin]-5-yl)benzonitrile [95/95a] | ≤ 100
5-((3,4-Dihydroisoquinolin-2(1H)-yl)methyl)-1′,2′,3′,5′,6′,7′,9′,9a′-octahydro-3H-spiro[benzofuran-2,8′-pyrrolo[1,2-a]azepine] and 5-((3,4-dihydroisoquinolin-2(1H)-yl)methyl)-1′,2′,3′,5′,6′,8′,9′,9a′-octahydro-3H-spiro[benzofuran-2,7′-pyrrolo[1,2-a]azepine] [97/97a] | ≤ 10
5-((3,4-Dihydroisoquinolin-2(1H)-yl)methyl)-2′,3′,4′,6′,7′,9′,10′,10a′-octahydro-1′H,3H-spiro[benzofuran-2,8′-pyrido[1,2-a]azepine] and 5-((3,4-dihydroisoquinolin-2(1H)-yl)methyl)-2′,3′,4′,6′,7′,8′,10′,10a′-octahydro-1′H,3H-spiro[benzofuran-2,9′-pyrido[1,2-a]azepine] [88/88a] | ≤ 100
5-(Imidazo[1,2-a]pyridin-6-yl)-1′,2′,3′,5′,6′,7′,9′,9a′-octahydro-3H-spiro[benzofuran-2,8′-pyrrolo[1,2-a]azepine] and 5-(imidazo[1,2-a]pyridin-6-yl)-1′,2′,3′,5′,6′,8′,9′,9a′-octahydro-3H-spiro[benzofuran-2,7′-pyrrolo[1,2-a]azepine] [96/96a] | ≤ 10
5-(Morpholinomethyl)-2′,3′,4′,6′,7′,9′,10′,10a′-octahydro-1′H,3H-spiro[benzofuran-2,8′-pyrido[1,2-a]azepine] and 5-(morpholinomethyl)-2′,3′,4′,6′,7′,8′,10′,10a′-octahydro-1′H,3H-spiro[benzofuran-2,9′-pyrido[1,2-a]azepine] [87/87a] | ≤ 100
5-Bromo-1′,2′,3′,5′,6′,7′,9′,9a′-octahydro-3H-spiro[benzofuran-2,8′-pyrrolo[1,2-a]azepine] and 5-bromo-1′,2′,3′,5′,6′,8′,9′,9a′-octahydro-3H-spiro[benzofuran-2,7′-pyrrolo[1,2-a]azepine] [94/94a] | ≤ 1000
5-Bromo-2′,3′,4′,6′,7′,9′,10′,10a′-octahydro-1′H,3H-spiro[benzofuran-2,8′-pyrido[1,2-a]azepine] and 5-bromo-2′,3′,4′,6′,7′,8′,10′,10a′-octahydro-1′H,3H-spiro[benzofuran-2,9′-pyrido[1,2-a]azepine] [82/82a] | ≤ 1000
c1ccc2c(c1)ncn2-c1ccc2c(c1)C[C@]1(CCCN(C3CCC3)CC1)O2 (single isomer, unassigned) [Compound 52, 5′-(1H-Benzo[d]imidazol-1-yl)-1-cyclobutyl-3′H-spiro[azepane-4,2′-benzofuran]] | ≤ 100
c1ccc2c(c1)ncn2-c1ccc2c(c1)C[C@]1(CCCN(C3CCC3)CC1)O2 (single isomer, unassigned) [Compound 53, 5′-(1H-Benzo[d]imidazol-1-yl)-1-cyclobutyl-3′H-spiro[azepane-4,2′-benzofuran]] | ≤ 100
Brc1ccc2c(c1)CC1(CCN3CCCCC3C1)O2 (single isomer, unassigned) [Compound 72, 5-Bromo-1′,3′,4′,6′,7′,8′,9′,9a′-octahydro-3H-spiro[benzofuran-2,2′-quinolizine]] | ≤ 1000
Brc1ccc2c(c1)CC1(CCN3CCCCC3C1)O2 (single isomer, unassigned) [Compound 73, 5-Bromo-1′,3′,4′,6′,7′,8′,9′,9a′-octahydro-3H-spiro[benzofuran-2,2′-quinolizine]] | ≤ 100
c1ccc2c(c1)CC1(CCN(C3CCC3)CC1)O2 [Compound 1, 1′-Cyclobutyl-3H-spiro[benzofuran-2,4′-piperidine]] | ≤ 100
CC(C1CCC1)N1CCC2(CC1)Cc1ccccc1O2 (centres unmarked) [Compound 4, 1′-(1-Cyclobutylethyl)-3H-spiro[benzofuran-2,4′-piperidine]] | ≤ 1000
CC(=O)Nc1ccc(-c2ccc3c(c2)CC2(CCN(C4CCC4)CC2)O3)cc1 [Compound 6, N-(4-(1′-Cyclobutyl-3H-spiro[benzofuran-2,4′-piperidine]-5-yl)phenyl)acetamide] | ≤ 10
c1cc2cc(-c3ccc4c(c3)CC3(CCN(C5CCC5)CC3)O4)ccc2[nH]1 [Compound 7, 1′-Cyclobutyl-5-(1H-indol-5-yl)-3H-spiro[benzofuran-2,4′-piperidine]] | ≤ 100
CN1CCC(N2CCC3(CC2)Cc2cc(-c4ccc(C#N)cc4)ccc2O3)CC1 [Compound 8, 4-(1′-(1-Methylpiperidin-4-yl)-3H-spiro[benzofuran-2,4′-piperidine]-5-yl)benzonitrile] | ≤ 100
CC(=O)Nc1ccc(-c2ccc3c(c2)CC2(CCN(C4CCN(C)CC4)CC2)O3)cc1 [Compound 9, N-(4-(1′-(1-Methylpiperidin-4-yl)-3H-spiro[benzofuran-2,4′-piperidine]-5-yl)phenyl)acetamide] | ≤ 100
CN1CCC(N2CCC3(CC2)Cc2cc(-c4ccc5[nH]ccc5c4)ccc2O3)CC1 [Compound 10, 5-(1H-Indol-5-yl)-1′-(1-methylpiperidin-4-yl)-3H-spiro[benzofuran-2,4′-piperidine]] | ≤ 1000
CC(C1CCC1)N1CCC2(CC1)Cc1cc(-c3ccc(C#N)cc3)ccc1O2 (centres unmarked) [Compound 11, 4-(1′-(1-Cyclobutylethyl)-3H-spiro[benzofuran-2,4′-piperidine]-5-yl)benzonitrile] | ≤ 10
CC(=O)Nc1ccc(-c2ccc3c(c2)CC2(CCN(C(C)C4CCC4)CC2)O3)cc1 (centres unmarked) [Compound 12, N-(4-(1′-(1-Cyclobutylethyl)-3H-spiro[benzofuran-2,4′-piperidine]-5-yl)phenyl)acetamide] | ≤ 10
CC(C1CCC1)N1CCC2(CC1)Cc1cc(-c3ccc4[nH]ccc4c3)ccc1O2 (centres unmarked) [Compound 13, 1′-(1-Cyclobutylethyl)-5-(1H-indol-5-yl)-3H-spiro[benzofuran-2,4′-piperidine]] | ≤ 100
NCc1ccc(-c2ccc3c(c2)CC2(CCN(C4CCC4)CC2)O3)cc1 [Compound 14, (4-(1′-Cyclobutyl-3H-spiro[benzofuran-2,4′-piperidine]-5-yl)phenyl)methanamine] | ≤ 100
CN1CCC(N2CCC3(CC2)Cc2cc(-c4ccc(CN)cc4)ccc2O3)CC1 [Compound 15, (4-(1′-(1-Methylpiperidin-4-yl)-3H-spiro[benzofuran-2,4′-piperidine]-5-yl)phenyl)methanamine] | ≤ 100
CC(C1CCC1)N1CCC2(CC1)Cc1cc(-c3ccc(CN)cc3)ccc1O2 (centres unmarked) [Compound 16, (4-(1′-(1-Cyclobutylethyl)-3H-spiro[benzofuran-2,4′-piperidine]-5-yl)phenyl)methanamine] | ≤ 10
N#Cc1ccc(-c2ccc3c(c2)CC2(CCN(C4CCCC4)CC2)O3)cc1 [Compound 17, 4-(1′-Cyclopentyl-3H-spiro[benzofuran-2,4′-piperidine]-5-yl)benzonitrile] | ≤ 100
CC1CCCC1N1CCC2(CC1)Cc1cc(-c3ccc(C#N)cc3)ccc1O2 (centres unmarked) [Compound 18] | ≤ 100
N#Cc1ccc(-c2ccc3c(c2)CC2(CCN(C4CCOCC4)CC2)O3)cc1 [Compound 19, 4-(1′-(Tetrahydro-2H-pyran-4-yl)-3H-spiro[benzofuran-2,4′-piperidine]-5-yl)benzonitrile] | ≤ 100
N#Cc1ccc(-c2ccc3c(c2)CC2(CCN(C4CCCCC4)CC2)O3)cc1 [Compound 20, 4-(1′-Cyclohexyl-3H-spiro[benzofuran-2,4′-piperidine]-5-yl)benzonitrile] | ≤ 100
N#Cc1ccc(-c2ccc3c(c2)CC2(CCN(CC4CCC4)CC2)O3)cc1 [Compound 21, 4-(1′-(Cyclobutylmethyl)-3H-spiro[benzofuran-2,4′-piperidine]-5-yl)benzonitrile] | ≤ 1000
CC(C)N1CCC2(CC1)Cc1cc(-c3ccc(C#N)cc3)ccc1O2 [Compound 22, 4-(1′-Isopropyl-3H-spiro[benzofuran-2,4′-piperidine]-5-yl)benzonitrile] | ≤ 10

same assay, conditions: histamine H3 in vitro assay; read-out: IC50 values

Compound | IC50 [nM]
CN1CCC(N2CCC3(CC2)Cc2ccccc2O3)CC1 [Compound 2, 1′-(1-Methylpiperidin-4-yl)-3H-spiro[benzofuran-2,4′-piperidine]] | > 1000
c1ccc2c(c1)CC1(CCN(Cc3c[nH]cn3)CC1)O2 [Compound 3, 1′-((1H-Imidazol-4-yl)methyl)-3H-spiro [benzofuran-2,4′-piperidine]] | > 1000
